Assay results taken from US7135193B2, “Liposome compositions of porphyrin photosensitizers” (QLT, Inc., priority 1992, dated 2006).

Test: Chemical stability of liposomal BPD-MA: potency, degradation products and pH of the reconstituted solution on storage
Assay type: physicochemical
Conditions: cryodesiccated liposome formulation
Protocol: The chemical stability of the constituted dosage form was followed by monitoring the potency, degradation products and pH of the reconstituted solution. The potency of the reconstituted parenteral dosage form was assessed by chromatography with potency calculated on as is basis.

With “benzoporphyrin derivative monoacid [BPD-MA]” the projected shelf life was “at least two years” and the “period over which potency was maintained” value (room temperature) was “at least nine months”.
